The results in this text go back to US11926626B2, “Heterocyclic GLP-1 agonists” (Gasherbrum Bio, Inc., priority 2020, dated 2024).

For the first test, the target named is GLP-1 Receptor (Homo sapiens, UniProt P43220). Description: GLP-1R agonist cAMP stimulation assay (HEK293/GLP1R/CRE-Luc cells, HTRF cAMP). The class given is cell-based. The following applies: 30 min, 37° C. The protocol: Activation of GLP-1 receptor is known to stimulate cyclic AMP (cAMP) production in cells which indicates primary coupling to the Gαs subunit of the G protein heterotrimeric complex.
Chain of GLP-1 Receptor (P43220 24-463): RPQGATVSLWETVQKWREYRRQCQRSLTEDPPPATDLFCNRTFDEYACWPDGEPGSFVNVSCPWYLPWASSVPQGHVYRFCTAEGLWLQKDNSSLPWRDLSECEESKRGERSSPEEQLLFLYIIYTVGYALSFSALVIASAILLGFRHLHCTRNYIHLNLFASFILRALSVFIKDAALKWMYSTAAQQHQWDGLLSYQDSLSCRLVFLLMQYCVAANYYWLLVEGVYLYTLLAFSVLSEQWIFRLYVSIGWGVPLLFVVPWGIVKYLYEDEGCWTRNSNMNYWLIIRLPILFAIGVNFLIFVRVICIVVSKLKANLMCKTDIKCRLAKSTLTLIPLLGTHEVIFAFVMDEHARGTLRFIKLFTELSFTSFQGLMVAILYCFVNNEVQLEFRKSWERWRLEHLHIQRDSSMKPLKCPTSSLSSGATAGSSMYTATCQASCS
To optimize functional activity directed toward Gαs coupling, a HEK293/CRE-Luc cell line developed by HDB stably expressing the GLP-1 Receptor was used. […] 1×10^5 cells/mL HEK293/GLP1R/CRE-LUC(HD Biosciences) cell suspensions prepared with assay buffer[DPBS containing 0.5 mM IBMX (Sigma, Cat #I5879) and 0.1% BSA (GENVIEW, Cat #FA016-100g)], 10 uL cell suspensions were added to each well of previous generated assay plate which already contains 50 nl compound at 200×concentration using ThermoFisher Multidrop Combi (1000 cells/well). Seal the plate and incubate at 37° C. with 5% CO2 for 30 min.
After incubation the cAMP assay signal was generated using cAMP dynamic 2 Kit (Cisbio). 5 μL cAMP-d2 working solution was added to each well, followed with 5 μL Anti-cAMP antibody-cryptate working solution added to each well using ThermoFisher Multidrop Combi. Incubate at room temperature for 1 hour protected from light.
(In general: TR-FRET usually uses a lanthanide donor and a delayed reading to cut background.)
In the case of `O=C(O)c1ccc2nc(CC3CCN(C(=O)c4cccc(Cc5ccc(Cl)cc5F)n4)CC3)n(C[C@@H]3CCO3)c2n1` [Compound 106a, (S)-2-((1-(6-(4-Chloro-2-fluorobenzyl)picolinoyl)piperidin-4-yl)methyl)-3-(oxetan-2-ylmethyl)-3H-imidazo[4,5-b]pyridine-5-carboxylic acid], the “GLP1R cAMP Stimulation DR: pEC50” value is 6.33.
Same read-out and setting: with `CC(=O)Nc1ccc2nc(CN3CCC(Oc4cccc(Cc5ccc(Cl)cc5F)n4)CC3)n(C[C@@H]3CCO3)c2c1` [Compound 134a, N-(2-{[4-({6-[(4-chloro-2-fluorophenyl)methyl]pyridin-2-yl}oxy)piperidin-1-yl]methyl}-1-{[(2S)-oxetan-2-yl]methyl}-1H-1,3-benzodiazol-6-yl)acetamide] the figure was 7.2.

Still in this test, the particulars now being: HEK293/CRE-Luc cells stably expressing GLP-1 Receptor; 30 min, 37° C.
On to `O=C(O)c1ccc2nc(CN3CCC(Oc4ccnc(Cc5ccc(F)cc5F)n4)CC3)n(C[C@@H]3CCO3)c2n1` [Compound 165a, 2-{[4-({2-[(2,4-difluorophenyl)methyl]pyrimidin-4-yl}oxy)piperidin-1-yl]methyl}-3-{[(2S)-oxetan-2-yl]methyl}-3H-imidazo[4,5-b]pyridine-5-carboxylic acid], for which the “GLP1R cAMP Stimulation DR: pEC50” value worked out at 9.4.
The same measure, in the same setting: the same measure for `O=c1[nH]c(-c2ccc3nc(CN4CCC(Oc5ccnc(Cc6ccc(Cl)cc6)n5)CC4)n(C[C@@H]4CCO4)c3n2)no1` [Compound 198a, (S)-3-(2-((4-((2-(4-chlorobenzyl)pyrimidin-4-yl)oxy)piperidin-1-yl)methyl)-3-(oxetan-2-ylmethyl)-3H-imidazo[4,5-b]pyridin-5-yl)-1,2,4-oxadiazol-5(4H)-one]: 9.2.
Take `O=C(O)c1ccc2nc(CN3CCC(Oc4cccc(Cc5ccc(Cl)cc5)c4Cl)CC3)n(C[C@@H]3CCO3)c2n1` [Compound 158a, 2-[(4-{2-chloro-3-[(4-chlorophenyl)methyl]phenoxy}piperidin-1-yl)methyl]-3-{[(2S)-oxetan-2-yl]methyl}-3H-imidazo[4,5-b]pyridine-5-carboxylic acid]: the “GLP1R cAMP Stimulation DR: pEC50” value is recorded as less than 6.0.
With `O=C(O)c1ccc2nc(C[C@H]3CC[C@H](Oc4cccc(Cc5ccc(Cl)cc5)n4)CC3)n(C[C@@H]3CCO3)c2n1` [Compound 181a, 3-{[(2S)-oxetan-2-yl]methyl}-2-{[trans-4-({6-[(4-chlorophenyl)methyl]pyridin-2-yl}oxy)cyclohexyl]methyl}-3H-imidazo[4,5-b]pyridine-5-carboxylic acid], the “GLP1R cAMP Stimulation DR: pEC50” value is listed as 10.1.
For `O=C(O)c1ccc2nc(CN3CCC(Oc4cccc(Cc5ccc(C(F)(F)F)cc5)n4)CC3)n(C[C@@H]3CCO3)c2n1` [Compound 145a, 3-{[(2S)-oxetan-2-yl]methyl}-2-({4-[(6-{[4-(trifluoromethyl)phenyl]methyl}pyridin-2-yl)oxy]piperidin-1-yl}methyl)-3H-imidazo[4,5-b]pyridine-5-carboxylic acid], the “GLP1R cAMP Stimulation DR: pEC50” value is 8.5.
Same read-out and setting: the same measure for `O=C(O)c1ccc2nc(CN3CCC(Oc4ccnc(Cc5ccc(Cl)cc5)c4)CC3)n(C[C@@H]3CCO3)c2n1` [Compound 159a, 2-{[4-({2-[(4-chlorophenyl)methyl]pyridin-4-yl}oxy)piperidin-1-yl]methyl}-3-{[(2S)-oxetan-2-yl]methyl}-3H-imidazo[4,5-b]pyridine-5-carboxylic acid]: 8.6; for `O=C(O)c1ccc2nc(CN3CCC(Oc4cc(Cl)cc(Cc5ccc(Cl)cc5)n4)CC3)n(C[C@@H]3CCO3)c2n1` [Compound 155a, 2-{[4-({4-chloro-6-[(4-chlorophenyl)methyl]pyridin-2-yl}oxy)piperidin-1-yl]methyl}-3-{[(2S)-oxetan-2-yl]methyl}-3H-imidazo[4,5-b]pyridine-5-carboxylic acid]: 8.4; for `O=C(O)c1ccc2nc(CN3CCC(Oc4cc(Cc5ccc(Cl)cc5F)ccc4F)CC3)n(C[C@@H]3CCO3)c2n1` [Compound 114a, 2-[(4-{5-[(4-chloro-2-fluorophenyl)methyl]-2-fluorophenoxy}piperidin-1-yl)methyl]-3-{[(2S)-oxetan-2-yl]methyl}-3H-imidazo[4,5-b]pyridine-5-carboxylic acid]: 8.8.
The same measure, in the same setting: the same measure for `O=C(O)c1ccc2nc(CN3CCC(Oc4nc(Cc5ccc(Cl)cc5F)ncc4F)CC3)n(C[C@@H]3CCO3)c2n1` [Compound 151a, (S)-2-((4-((2-(4-chloro-2-fluorobenzyl)-5-fluoropyrimidin-4-yl)oxy)piperidin-1-yl)methyl)-3-(oxetan-2-ylmethyl)-3H-imidazo[4,5-b]pyridine-5-carboxylic acid]: 10.1.
As for `O=C(O)c1ccc2nc(CN3CCC(Oc4ccnc(Cc5ccc(Cl)cc5)n4)CC3)n(Cc3cn[nH]c3)c2n1` [Compound 193, 3-((1H-pyrazol-4-yl)methyl)-2-((4-((2-(4-chlorobenzyl)pyrimidin-4-yl)oxy)piperidin-1-yl)methyl)-3H-imidazo[4,5-b]pyridine-5-carboxylic acid], the “GLP1R cAMP Stimulation DR: pEC50” value is on record as 9.7.
The same measure, in the same setting: with `O=C(O)c1ccc2nc(CN3CCC(Oc4ccc(=O)n(Cc5ccc(Cl)cc5F)n4)CC3)n(C[C@@H]3CCO3)c2n1` [Compound 144a, 2-{[4-({1-[(4-chloro-2-fluorophenyl)methyl]-6-oxo-1,6-dihydropyridazin-3-yl}oxy)piperidin-1-yl]methyl}-3-{[(2S)-oxetan-2-yl]methyl}-3H-imidazo[4,5-b]pyridine-5-carboxylic acid] the figure was 8.3.
The same measure, in the same setting: the same measure for `O=C(O)c1ccc2nc(C[C@H]3CC[C@@H](Oc4ccnc(Cc5ccc(Cl)cc5F)n4)CC3)n(C[C@@H]3CCO3)c2n1` [Compound 175a, 3-{[(2S)-oxetan-2-yl]methyl}-2-{[cis-4-({2-[(4-chloro-2-fluorophenyl)methyl]pyrimidin-4-yl}oxy)cyclohexyl]methyl}-3H-imidazo[4,5-b]pyridine-5-carboxylic acid]: 6.6; for `O=C(O)c1ccc2nc(CN3CCC(Oc4ccnc(Cc5ccc(Cl)c(Cl)c5)n4)CC3)n(C[C@@H]3CCO3)c2n1` [Compound 167a, 2-{[4-({2-[(3,4-dichlorophenyl)methyl]pyrimidin-4-yl}oxy)piperidin-1-yl]methyl}-3-{[(2S)-oxetan-2-yl]methyl}-3H-imidazo[4,5-b]pyridine-5-carboxylic acid]: 9.9.
Same read-out and setting: with `O=C(O)c1ccc2nc(CN3CCC(Oc4cccc(Cc5ccc(Cl)cc5F)n4)C3)n(C[C@@H]3CCO3)c2n1` (stereo partly drawn) [Compound 130a, 2-{[3-({6-[(4-chloro-2-fluorophenyl)methyl]pyridin-2-yl}oxy)pyrrolidin-1-yl]methyl}-3-{[(2S)-oxetan-2-yl]methyl}-3H-imidazo[4,5-b]pyridine-5-carboxylic acid] the figure was 7.3; with `O=C(O)c1ccc2nc(CN3CCC(Oc4ccnc(Cc5ccc(Cl)cc5F)n4)CC3)n(C[C@@H]3CCO3)c2n1` [Compound 113a, 2-{[4-({2-[(4-chloro-2-fluorophenyl)methyl]pyrimidin-4-yl}oxy)piperidin-1-yl]methyl}-3-{[(2S)-oxetan-2-yl]methyl}-3H-imidazo[4,5-b]pyridine-5-carboxylic acid], 10.4; with `O=C(O)c1ccc2nc(CN3CCC(n4ncc5ccc(Cc6ccc(Cl)cc6F)nc54)CC3)n(C[C@@H]3CCO3)c2n1` [Compound 185a, 2-[(4-{6-[(4-chloro-2-fluorophenyl)methyl]-1H-pyrazolo[3,4-b]pyridin-1-yl}piperidin-1-yl)methyl]-3-{[(2S)-oxetan-2-yl]methyl}-3H-imidazo[4,5-b]pyridine-5-carboxylic acid], 9.3.
In the case of `Cn1c(C[C@H]2CC[C@H](Oc3ccnc(Cc4ccc(Cl)cc4)n3)CC2)nc2ccc(C(=O)O)nc21` [Compound 180a, 3-methyl-2-{[trans-4-({2-[(4-chlorophenyl)methyl]pyrimidin-4-yl}oxy)cyclohexyl]methyl}-3H-imidazo[4,5-b]pyridine-5-carboxylic acid], the “GLP1R cAMP Stimulation DR: pEC50” value came to 8.6.
Take `O=C(O)c1ccc2nc(CN3CC=C(c4cnc5ccc(Cc6ccc(Cl)cc6F)nn45)CC3)n(C[C@@H]3CCO3)c2n1` [Compound 192a, 2-[(4-{6-[(4-chloro-2-fluorophenyl)methyl]imidazo[1,2-b]pyridazin-3-yl}-1,2,3,6-tetrahydropyridin-1-yl)methyl]-3-{[(2S)-oxetan-2-yl]methyl}-3H-imidazo[4,5-b]pyridine-5-carboxylic acid]: the “GLP1R cAMP Stimulation DR: pEC50” value came out at 6.9.
On the same count and under the same terms, the same measure for `O=C(O)c1ccc2nc(CN3CCC(Oc4cc(C(F)(F)F)cc(Cc5ccc(Cl)cc5)n4)CC3)n(C[C@@H]3CCO3)c2n1` [Compound 156a, 2-{[4-({6-[(4-chlorophenyl)methyl]-4-(trifluoromethyl)pyridin-2-yl}oxy)piperidin-1-yl]methyl}-3-{[(2S)-oxetan-2-yl]methyl}-3H-imidazo[4,5-b]pyridine-5-carboxylic acid]: 7.4; for `O=C(O)c1ccc2nc(CN3CCC(Oc4cccc(Cc5ccc(Cl)cc5)n4)CC3)n(C[C@@H]3CCO3)c2n1` [Compound 124a, (S)-2-((4-((6-(4-chlorobenzyl)pyridin-2-yl)oxy)piperidin-1-yl)methyl)-3-(oxetan-2-ylmethyl)-3H-imidazo[4,5-b]pyridine-5-carboxylic acid]: 10.4.

Still in this test, the particulars now being: HEK293/CRE-Luc cells stably expressing GLP-1 Receptor; 30 min, 37° C.; read-out: GLP1R cAMP Stimulation DR: EC50.
On to `O=C(O)c1ccc2nc(CN3CCC(Oc4ccnc(Cc5ccc(F)cc5F)n4)CC3)n(C[C@@H]3CCO3)c2n1` [Compound 165a, 2-{[4-({2-[(2,4-difluorophenyl)methyl]pyrimidin-4-yl}oxy)piperidin-1-yl]methyl}-3-{[(2S)-oxetan-2-yl]methyl}-3H-imidazo[4,5-b]pyridine-5-carboxylic acid], for which the EC50 came to 0.4 nM.

One may read the EC50 as the concentration that produces a half-maximal response.
